From patent US9629884B2, “Compositions and methods for increasing lifespan and health span” (GENEREX PHARMACEUTICALS, INC., priority 2009, dated 2017)

Assay: Blood glucose level in a diabetic patient (mercy treatment)
Type: in vivo, human
Settings: Diamicron 80 mg, 2 tablets every morning, before OEGJ
Description: Based on the above-mentioned rationale, the possibility of using OEGJ for the treatment of diabetes was tested in diabetics on the basis of mercy treatment. A person was first diagnosed with diabetes before undergoing hemorrhoid surgery a year before treatment. Their blood glucose level at that time was 24.0 mmol/L. They were put on insulin treatment for a week and started to take diabetes medicine (Diamicron 80 mg, 2 tablets every morning under fasting condition).

Cc1ccc(S(=O)(=O)NC(=O)NN2CC3CCCC3C2)cc1 (stereo not shown) [Diamicron]
average blood glucose level during six-month period on the medication: 9.97 mmol/L
